Experimental findings from patent publication US10753901B2, “Integrated sensor for the rapid identification of bacteria using ISFETS” (priority 2012, dated 2020) are described below.

One assay relates to E. coli K12 BW25113. As to the kind of experiment: ISFET chip detection of potassium ion efflux after addition of antibacterial agent, positive control. The class given is cell-based. To be noted: in SM buffer, compared to negative control BL21, FIG. 12. The protocol: In this example, the bacteriocin Colicin A9 was combined with E. coli K12 BW25113 as the positive control. As negative controls, Colicin A9 was combined with Staphylococcus aureus 8325, and Colicin A9 was combined with Pseudomonas aeruginosa (PA01). Experiments were performed as described above for Example 1, using the ISFET system 600.
In this example, the Polymyxin B antibiotic (PMB) was combined with E. coli K12 BW25113 in SM buffer as the positive control. As the negative control, Polymyxin B antibiotic (PMB) combined with E. coli K12 BL21 (DE3-Δtail) (referred to as BL21) in SM buffer. Experiments were performed as described above for Example 1, using the ISFET system 600.

For assay [1], the system named is Staphylococcus aureus 8325. The assay can be described thus: ISFET chip detection of potassium ion efflux after addition of lysostaphin, positive control. The class given is cell-based. Particulars: compared to negative controls E. coli K12 BW25113 and P. aeruginosa (PA01), FIG. 11. An excerpt:
In this example, the lysostaphin from Staphylococcus simulans was combined with Staphylococcus aureus 8325 as the positive control. As negative controls, lysostaphin from Staphylococcus simulans was combined with E. coli K12 BW25113, and lysostaphin from Staphylococcus simulans was combined with Pseudomonas aeruginosa (PA01).

Take Polymyxin B: the “ISFET output from efflux of potassium ions” value with E. coli K12 BW25113 was “output increases”.

On to “lysostaphin: lysostaphin from Staphylococcus simulans”, for which the “ISFET output from efflux of potassium ions” value in assay [1] is recorded as “output increases”.
